Consider three compounds from patent US9120762B2, “Salts of bicyclo-substituted pyrazolon azo derivatives, preparation method and use thereof” (Jiangsu Hengrui Medicine Co., Ltd., priority 2009, dated 2015).

Read-outs that look alike come from different tables or passages of the source.

As a reminder, the solubility is how much of the substance goes into solution per volume. Broadly, the EC50 is the midpoint of the concentration-response curve. A low value points to greater potency.

Data set [1] in a line: Hygroscopicity assay, standing 48 hours at 25° C., humidity 79%. Type of data set: physicochemical. Conditions: for Percentage of weight gain / hygroscopicity: 48 hours, 25° C., humidity 79%. As to the method: The hygroscopicity test of the compounds of the present disclosure after standing for 48 hours
1. The arid glass weighing bottle with a tap (external diameter is 50 mm, the height is 15 mm) was placed at 25° C.±1° C. suitably in a thermostatic drier (saturated ammonium sulfate solution was laid in the lower part, humidity was 79%) the day before the assay, precise weight was measured as (m1);
2. The above weighing bottle was covered with the compounds of the invention (about 1 g), and the thickness of the compounds were generally 1 mm, precise weight was measured as (m2);
3. The mouth of the weighing bottle was kept open and placed with the tap in the above conditions with constant temperature and humidity for 48 hours;
4. Put the tap back on the bottle, precise weight was measured as (m3)
The degree of hygroscopicity was defined as follows: […]
Deliquesce: turning into liquid by absorbing enough moisture.
High hygroscopicity: the percentage of hygroscopicity weight gain is not less than 15%.
Hygroscopicity: the percentage of hygroscopicity weight gain is less than 15%, but not less than 2%.
Sparing hygroscopicity: the percentage of hygroscopicity weight gain is less than 2%, but not less than 0.2%.
No hygroscopicity or almost no hygroscopicity: the percentage of hygroscopicity weight gain is less than 0.2%.

A short description of data set [2]: Solubility assay in water, 0.1% hydrochloric acid and methanol. Format: physicochemical. Conditions: read-out: solubility. Summed up:
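Solubility was classed by the solvent volume needed to dissolve 1 g (mL) of solute, from "very soluble" (<1 mL) to "practically insoluble" (not fully dissolved in 10000 mL).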

The target of another data set is T1, human TPOR (Homo sapiens, UniProt P40238).
T1 construct: host or cells: BaF3 (murine pro-B cells), stably transfected, G418-selected
T1 sequence (P40238 26-635): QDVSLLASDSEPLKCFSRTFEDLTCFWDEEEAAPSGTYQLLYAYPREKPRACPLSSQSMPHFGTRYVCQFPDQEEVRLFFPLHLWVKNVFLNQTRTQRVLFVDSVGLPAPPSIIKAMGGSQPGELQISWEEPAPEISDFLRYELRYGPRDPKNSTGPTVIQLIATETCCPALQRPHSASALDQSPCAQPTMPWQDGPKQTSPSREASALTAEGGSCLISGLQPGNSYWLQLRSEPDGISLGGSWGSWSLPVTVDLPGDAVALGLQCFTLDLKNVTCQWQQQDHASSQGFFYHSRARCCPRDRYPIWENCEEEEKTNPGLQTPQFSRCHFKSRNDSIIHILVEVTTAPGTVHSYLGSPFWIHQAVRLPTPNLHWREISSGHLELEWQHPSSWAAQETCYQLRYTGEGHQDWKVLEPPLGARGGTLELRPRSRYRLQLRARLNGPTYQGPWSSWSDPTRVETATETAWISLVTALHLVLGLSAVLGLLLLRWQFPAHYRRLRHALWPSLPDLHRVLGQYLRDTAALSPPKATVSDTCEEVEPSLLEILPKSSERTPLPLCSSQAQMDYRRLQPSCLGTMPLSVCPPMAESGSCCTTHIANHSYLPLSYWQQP
The data set can be described thus: Proliferation effect on BAF3-TPOR cell (CCK-8). Conditions: rate relative to rhTPO positive control. Type of data set: cell-based. The essentials: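 BaF3 cells stably expressing dual-site-mutated human TPOR were washed free of IL-3 and plated at 100,000 cells/mL with test solutions of 0.001–30 μM, then incubated 24 h at 37 °C. After a further 24 h with CCK-8, OD450 was read. Proliferation = (S−B)/(P−B) against a rhTPO control, fitted for EC50.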

The mark [3] stands for this setting: 0.1% hydrochloric acid, simulated gastric fluid, 0.1% hydrochloric acid.

`CC1=NN(c2ccc3c(c2)CCCC3)C(=O)/C1=N\Nc1cccc(-c2ccc(C(=O)O)o2)c1O` [Example 8, (Z)-5-(2-hydroxy-3-{N′-[3-methyl-5-oxo-1-(5,6,7,8-tetrahydro-naphthalen-2-yl)-1,5-dihydro-pyrazol-4-ylidene]-hydrazino}-phenyl)-furan-2-carboxylic acid bis-(choline)]: in data set [1], the “Percentage of weight gain” value was determined as 13.9% and the hygroscopicity entry was “Hygroscopicity (the percentage of hygroscopicity weight gain is less than 15%, but not less than 2%)”. Moreover, the solubility in data set [2] (setting [3]) is < 1 µg/mL. This compound also displayed a concentration for a half-maximal effect (EC50) on human TPOR of 4.4 nM.

For the compound `CC1=NN(c2ccc3c(c2)CCCC3)C(=O)/C1=N\Nc1cccc(-c2ccc(C(=O)O)o2)c1O` [Example 12, (Z)-5-(2-hydroxy-3-{N′-[3-methyl-5-oxo-1-(5,6,7,8-tetrahydro-naphthalen-2-yl)-1,5-dihydro-pyrazol-4-ylidene]-hydrazino}-phenyl)-furan-2-carboxylic acid bis-(trometamol)], in data set [1], the “Percentage of weight gain” value is listed as 2.71% and the hygroscopicity result is recorded as “Hygroscopicity (the percentage of hygroscopicity weight gain is less than 15%, but not less than 2%)”. On human TPOR, this compound returned a concentration for a half-maximal effect (EC50) of 14 nM.

On to `CC1=NN(c2ccc3c(c2)CCCC3)C(=O)/C1=N\Nc1cccc(-c2ccc(C(=O)O)o2)c1O.NCCO.NCCO` [Example 7, (Z)-5-(2-hydroxy-3-{N′-[3-methyl-5-oxo-1-(5,6,7,8-tetrahydro-naphthalen-2-yl)-1,5-dihydro-pyrazol-4-ylidene]-hydrazino}-phenyl)-furan-2-carboxylic acid bis-(ethanolamine)], for which the “Percentage of weight gain” value in data set [1] is on record as 1.2%. Further, the hygroscopicity result in data set [1] is on record as “Sparing hygroscopicity (the percentage of hygroscopicity weight gain is less than 2%, but not less than 0.2%)”. For the same compound, the “hygroscopicity, in words” value in data set [1] (comparing to the other salts) is reported as “less hydroscopic”. Moreover, the solubility in data set [2] (setting [3]) is 29 µg/mL; in data set [2] (methanol, organic solvent or mixture, methanol), 22400 µg/mL; in data set [2] (water), 3960 µg/mL. On human TPOR, the EC50 came to 19 nM.
